According to patent US20150110814A1, “COMBINATION THERAPIES WITH PSMA LIGAND CONJUGATES” (PSMA Development Company, LLC, priority 2013, published 2015):
Square brackets hold non-standard residues; d marks the D form. Peptide text beside a SMILES is read from it. * marks the point of attachment. Dolaproine = CO[C@@H]([C@@H]1CCCN1)[C@@H](C)C(=O)O; Dil = CC[C@H](C)[C@H](NC)[C@@H](CC(=O)O)OC; X1 = C[C@@H](N*)[C@@H](O)c1ccccc1; NMeV = CN[C@H](C(=O)O)C(C)C

How the values were obtained:
C4-2 cells = experiment: Cell viability assay (CellTiter-Glo, inhibition of proliferation, Bliss synergy); format: cell-based, human; details: for activity when combined with PSMA ADC: C4-2 cells (FIG. 8)
Description: (§1) Cells were plated at a density of 1×10^3 cells in 25 μL in 384-well white-colored microplates (Perkin Elmer) and cultured overnight. The next day, cells were treated with 1 or 2 drugs in a total volume of 50 μL. Cultures were incubated at 37° C. for 7 days. Viability was assessed on days 0 and 7 using CellTiter-Glo (Promega) and an Analyst GT luminescence reader at 560 nm emission (Molecular Devices). The percent inhibition of proliferation was calculated as (Vu−Vt)/(Vu−V0)×100, where Vu, Vt and V0 represent the viability values for untreated cells on day 7, treated cells on day 7, and cells prior to treatment on day 0, respectively. […] Values of >100% reflect cytotoxic compounds or combinations, where Vt<V0.
(§2) Drug combinations were tested in 3 to 7 independent repeat cell viability assays unless otherwise indicated Inhibition data were fit to a four-parameter logistic equation using GraphPad Prism. […] Bliss differences were calculated by subtracting the predicted value (Fc) from the experimentally observed inhibition. Mean Bliss differences were calculated for each point in a matrix of drug-drug combinations, converted to percentages, and assessed for statistical significance from the null value of zero using two-sided t-tests with a significance level of 0.05. Statistical evaluations were not performed in cases where the fractional growth inhibition exceeded unity, since such values fall outside the Bliss framework. In addition, Bliss differences of less than 5% were considered to be of limited biological relevance and were excluded from synergy considerations.

LNCaP cells = experiment: as above; format: cell-based, human; details: for activity when combined with PSMA ADC: LNCaP cells (FIG. 8)
Description: as §1, §2

[1] = test system: PSMA expression on C4-2 cells; experiment: Flow cytometry of cell-surface PSMA expression; format: cell-based, human; design: cell-surface PSMA expression / PSMA expression on treated cells relative to untreated cells: dose or concentration left out as unconfirmed; details: for cell-surface PSMA expression: 7 days post-treatment
Description: (§3) For short-term treatments (≦7 days), cells were plated on 24-well plates (BD Falcon) overnight, at a density of 200,000 cells per 500 μL. The next day, wells were exchanged with 500 μL of fresh media that included inhibitor, and incubated at 37° C. until the indicated time point. For the long-term treatments (>7 days), cells were plated on T-25 flasks (BD Falcon) overnight, at a density of 500,000 cells per flask in 5 mL of media. 5 mL of fresh media with or without treatment was exchanged the next day. On weekly splits thereafter, cells were detached with Cell Dissociation solution (Sigma), washed with fresh media, counted using Vi-CELL XR (Beckman Coulter), and split into two T-25 flasks for continued culture with or without inhibitor. Prior to analysis, cells were detached, counted and suspended in PBS (PBS(−), without Ca/Mg, Life Technologies) containing 0.3% bovine serum albumin (BSA, Sigma) and 0.1% sodium azide (VWR). Cells (100,000 in 100 μL) were placed in round-bottom 96-well plates (Falcon) and incubated for 30 minutes at room temperature with 1 μg/mL of anti-PSMA mAb 3.9 conjugated to phycoerythrin (PE). Cells then were washed twice with 200 μL PBS/BSA/azide buffer and read using a FACSCalibur instrument (BD Biosciences). A mouse IgG2b-PE conjugate of irrelevant specificity (Abcam) was included as an isotype control.

[2] = test system: metastatic, castration-resistant prostate cancer (mCRPC); details: subjects with mCRPC; cited from earlier work
[3] = test system: PSMA expression on LNCaP cells; experiment: Flow cytometry of cell-surface PSMA expression; format: cell-based, human; details: antiandrogens concentrations above 1 mM, 7 days post-treatment
Description: as §3

PSMA in LNCaP cells = experiment: Western blotting of total PSMA; format: cell-based, human; details: 7 days, serial dilution of lysates
Description: (§4) Cells (300,000) were incubated overnight in 6-well plates (BD Falcon) in 4 mL of 10% FBS RPMI1640 media prior to addition of inhibitors. Plates were incubated at 37° C. for an additional 7 days, washed once with 5 mL of cold PBS(−) and placed on ice. Cells were lysed with 130 μL of RIPA Lysis Buffer (Santa Cruz Biotechnology) and then centrifuged at 14,000×g for 10 minutes at 4° C. The supernatant was quantitated for protein concentration using a BCA kit (Pierce/Thermo), resolved under reducing conditions using NuPAGE Novex 4-12% Bis-Tris gels (Life Technologies), and transferred to nitrocellulose using the iBlot 7-Minute Blotting System (Life Technologies). Membranes were blocked using Odyssey Blocking Reagent (LI-COR Biosciences), incubated with primary and secondary antibodies, and visualized using an Odyssey infrared imager (LI-COR Biosciences).

PSMA in C4-2 cells = experiment: Western blotting of total PSMA; format: cell-based, human; details: 7 days
Description: as §4

Compound	activity when combined with PSMA ADC (C4-2 cells)	activity when combined with PSMA ADC (LNCaP cells)	effect on the activity of PSMA ADC (C4-2 cells; C4-2 cells)	single-agent antiproliferative effect (C4-2 cells; C4-2 cells, single agent)	single-agent antiproliferative effect (LNCaP cells; LNCaP cells, single agent)	also measured
CS(=O)(=O)N1CCN(Cc2cc3nc(-c4cccc5[nH]ncc45)nc(N4CCOCC4)c3s2)CC1 [GDC-0941, 2-(1H-indazol-4-yl)-6-(4-methanesulfonyl-piperazin-1-ylmethyl)-4-morpholin-4-yl-t hieno[3,2-d]pyrimidine]	additive to weakly synergistic activity	additive to weakly synergistic activity	–	–	–	–
NC1(c2ccc(-c3nc4ccn5c(=O)[nH]nc5c4cc3-c3ccccc3)cc2)CCC1 [MK-2206]	additive to weakly synergistic activity	additive to weakly synergistic activity	–	–	–	–
CNC(=O)c1ccc(N2C(=S)N(c3cnc(C#N)c(C(F)(F)F)c3)C(=O)C23CCC3)cc1F [ARN-509]	–	–	enhanced the activity of PSMA ADC	minimal antiproliferative effects	inhibited proliferation	–
CO[C@H]1C[C@@H]2CC[C@@H](C)[C@@](O)(O2)C(=O)C(=O)N2CCCC[C@H]2C(=O)O[C@H]([C@H](C)C[C@@H]2CC[C@@H](O)[C@H](OC)C2)CC(=O)[C@H](C)/C=C(\C)[C@@H](O)[C@@H](OC)C(=O)[C@H](C)C[C@H](C)/C=C/C=C/C=C/1C [Rapamycin, rapamycin]	–	–	–	–	–	increase in PSMA expression ([1]; C4-2, low nanomolar concentrations, 7 days): > 2 fold
CO[C@H]1C(=O)[C@]2(C)[C@@H](OC)C[C@H]3OC[C@@]3(OC(C)=O)[C@H]2[C@H](OC(=O)c2ccccc2)[C@]2(O)C[C@H](OC(=O)[C@H](O)[C@@H](NC(=O)OC(C)(C)C)c3ccccc3)C(C)=C1C2(C)C [Jevtana, cabazitaxel]	–	–	–	–	–	survival benefit [2]: 2.4 month
C[C@]12CC[C@H](O)CC1=CC[C@@H]1[C@@H]2CC[C@]2(C)C(n3cnc4ccccc43)=CC[C@@H]12 [TOK-001, galeterone]	–	–	enhanced the activity of PSMA ADC	minimal antiproliferative effects	inhibited proliferation	–
C[C@]12C=CC(=O)C=C1CC[C@@H]1[C@@H]2C(=O)C[C@@]2(C)[C@H]1CC[C@]2(O)C(=O)CO [Prednisone, prednisone]	additive to weakly synergistic activity	additive to weakly synergistic activity	–	–	–	–
Cc1ccc(C(=O)N(CCCN)[C@@H](c2oc3cc(Cl)ccc3c(=O)c2Cc2ccccc2)C(C)C)cc1 [SB-743921]	additive to weakly synergistic activity	additive to weakly synergistic activity	–	–	–	–
CNC(=O)c1ccc(N2C(=S)N(c3ccc(C#N)c(C(F)(F)F)c3)C(=O)C2(C)C)cc1F [Enzalutamide, enzalutamide]	–	–	significantly enhanced the activity of PSMA ADC	minimal antiproliferative effects	inhibited proliferation	cell-surface PSMA expression ([1]; C4-2): approximately doubled; cell-surface PSMA expression ([1]; C4-2, listed as enzalutamide): doubled; time for PSMA expression to return to baseline in the absence of drug ([1]; C4-2, after 3 weeks culture in enzalutamide): ≤ 7 days; PSMA expression on treated cells relative to untreated cells ([1]; C4-2, after 21 days): 4 fold; exposure time to maximal PSMA expression ([1]; FIG. 15, cell line not stated in legend): 3 to 4 weeks; cell-surface PSMA expression [3]: approximately doubled; magnitude of increase in PSMA (Western, semi-quantitative) (PSMA in LNCaP cells): approximately 5 fold; PSMA upregulation (Western) (PSMA in C4-2 cells): upregulated PSMA to similar extents
CC[C@H](C)[C@@H]([C@@H](CC(=O)N1CCC[C@H]1[C@H](OC)[C@@H](C)C(=O)N[C@H](C)[C@@H](O)c1ccccc1)OC)N(C)C(=O)[C@@H](NC(=O)[C@@H](NC)C(C)C)C(C)C [MMAE, monomethylauristatin norephedrine] (H-[NMeV]V[Dil][Dolaproine]-X1)	–	–	–	–	–	activity when paired with enzalutamide or abiraterone (C4-2 cells; C4-2 cells): additive to weakly synergistic activity; IC50 (C4-2 cells; C4-2 cells, single agent, 7 days): ~0.5 nM; activity when paired with enzalutamide or abiraterone (LNCaP cells; LNCaP cells): additive activity; IC50 (LNCaP cells; LNCaP cells, single agent, 7 days): ~0.5 nM
